Measurements reported in patent US9364477B2, “Mutant ROS expression in human cancer” (Cell Signaling Technology, Inc., priority 2009, dated 2016).

Key:
[1] = test system: BaF3 expressing FIG-ROS(S); assay: MTS cell growth assay, BaF3 expressing FIG-ROS(S); format: cell-based, Murine
Experimental: (§1) BaF3 cells were transduced with retrovirus encoding FIG-ROS(S), FIG-ROS(L), or FLT-31TD (the Internal tandem duplication mutation in FLT3 causes AML leukemia), and selected for IL3 independent growth. Karpas 299 cells, which express NPM-ALK, was used as a positive control.
(§2) After 72 hours, 20 ul of the CellTiter 96 Aqueous One Solution Reagent was added into each well of a 96 well assay plate (flat bottom), and then 100 ul of cells grown with or without treatment. Media-only wells were used as controls. The 96 well plate was incubated for 1-4 hours at 37° C., and then viable cells were counted by reading the absorbance at 490 nm using a 96 well plate reader.

[2] = test system: BaF3 expressing FIG-ROS(L); assay: MTS cell growth assay, BaF3 expressing FIG-ROS(L); format: cell-based, Murine; details: 0-1000 nM TAE-684, 72 hours
Experimental: as §1, §2

BaF3 expressing FLT3ITD = assay: MTS cell growth assay, BaF3 transduced with FLT3/ITD; format: cell-based, Murine; details: 0-1000 nM TAE-684, 72 hours
Experimental: as §1, §2

Karpas 299 cells [3] = assay: MTS cell growth assay, Karpas 299 cells (NPM-ALK); format: cell-based; details: 0-1000 nM TAE-684, 72 hours
Experimental: as §1, §2

[4] = test system: BaF3 cells expressing FIG-ROS(S); assay: Cleaved caspase-3 flow cytometry apoptosis assay, BaF3 FIG-ROS(S); format: cell-based, Murine; details: presence of TAE-684
From the text: (§3) The mechanism of death of the BaF3 and Karpas 299 cells was next reviewed by measuring the percentage of cleaved-caspase 3 positive cells by flow cytometry assay using cleaved caspase-3 as a marker for apoptosis.

[5] = test system: BaF3 cells expressing FIG-ROS(L); assay: Cleaved caspase-3 flow cytometry apoptosis assay, BaF3 FIG-ROS(L); format: cell-based, Murine; details: presence of TAE-684
From the text: as §3

Karpas 299 cells [6] = assay: Cleaved caspase-3 flow cytometry apoptosis assay, Karpas 299; format: cell-based; details: presence of TAE-684
From the text: as §3

FIG-ROS(S) = FIG-ROS(S) (Homo sapiens, UniProt P08922); assay: Western blotting of phosphorylation, BaF3 FIG-ROS(S); format: cell-based; details: 0, 10, 50, or 100 nM TAE-684 for three hours
FIG-ROS(L) = FIG-ROS(L) (Homo sapiens, UniProt P08922); assay: Western blotting of phosphorylation, BaF3 FIG-ROS(L); format: cell-based; details: 0, 10, 50, or 100 nM TAE-684 for three hours
[7] = test system: BaF3 cells transduced with the FLT-31TD retrovirus; assay: Western blotting of phosphorylation, BaF3 FLT-31TD; format: cell-based, Murine; details: 0, 10, 50, or 100 nM TAE-684 for three hours
[8] = test system: Ros (D4D6) XP™ Rabbit mAb; details: HCC78 cells; antibody 0.19 μg/ml; peptide 1.9 ug/ml
Experimental: Briefly, paraffin embedded HCC78 cell pellets were deparaffinized and rehydrated through three changes of xylene and graded ethanol, then rinsed in diH2O. Slides were subjected to antigen retrieval in 1.0 mM EDTA, pH 8.0 in the microwave. After blocking for 1 hour in TBST/5% goat serum, slides were incubated overnight at 4° C. with Ros (D4D6) XP™ Rabbit mAb at 0.19 μg/ml in the absence of peptide or in the presence of one of 13 different ROS peptides at 1.9 ug/ml.
After washing, detection was performed with SignalStain® Boost IHC Detection Reagent (HRP, Rabbit) #8114 and NovaRed (Vector Laboratories, Burlingame, Calif.).

Compound | cellular growth response in the presence of TAE-684 ([1]; BaF3 FIG-ROS(S), 0-1000 nM TAE-684, 72 hours, MTS) | susceptibility of FIG-ROS(S) to TAE-684 compared with FIG-ROS(L) ([1]; BaF3 cells, MTS assay) | cellular growth response in the presence of TAE-684 [2] | cellular growth response in the presence of TAE-684 (BaF3 expressing FLT3ITD) | cellular growth response in the presence of TAE-684 (Karpas 299 cells [3]) | death by apoptosis (cleaved-caspase 3 positive cells) [4] | death by apoptosis (cleaved-caspase 3 positive cells) [5] | cell cycle arrest (Karpas 299 cells [6]) | death by apoptosis (cleaved-caspase 3 positive cells) (Karpas 299 cells [6]) | phosphorylation of FIG-ROS(S) (FIG-ROS(S)) | phosphorylation of STAT3, AKT, and ERK, and Shp2 (downstream signaling molecules) (FIG-ROS(S)) | phosphorylation of FIG-ROS(L) (FIG-ROS(L)) | phosphorylation of STAT3, AKT, and ERK, and Shp2 (downstream signaling molecules) (FIG-ROS(L)) | phosphorylation of STAT3, AKT, and ERK, and Shp2 [7] | competition of ROS antibody binding off the IHC slide [8]
COc1cc(N2CCC(N3CCN(C)CC3)CC2)ccc1Nc1ncc(Cl)c(Nc2ccccc2S(=O)(=O)C(C)C)n1 [TAE-684] | stopped growing | less susceptible | stopped growing | not susceptible | stopped growing | die by apoptosis | die by apoptosis | underwent cell cycle arrest | did not die by apoptosis | inhibited | inhibited | inhibited | inhibited | not affected | –
(biotin)AGAGVAYCPSGKPE [peptide 9] | – | – | – | – | – | – | – | – | – | – | – | – | – | – | able to compete
